“And” between values parts separate entries of the source, which are not always exact repeats. Equal entries are not always repeated.

Holding throughout (assay type): cell-based, human
For test [1], the system named is RV-specific CD4+ T cells. In words: Direct ex vivo pMHCII tetramer staining of non-stimulated PBMCs. Also noted: key to Validated: Y means validated. Conditions: for Ex Vivo Frequency (# per 10^6 CD4): directly ex vivo, without culture, one value per subject. The source says: (§1) Peptide libraries consisting of 20mers with a 12 amino acid overlap were generated to span the VP1, VP2 and VP4 protein sequences of RV-A16, and VP1 and VP2 protein sequences of RV-A39 (UniprotKB accession # Q82122, Q5XLP5). […] Biologically relevant pMHCII complexes were identified by tetramer-guided epitope mapping (TGEM). This involved 2 steps: First, PBMC cultures established from subjects with known HLA-DR types were stimulated with RV peptide pools derived from VP1, VP2, or VP4, and then stained with pMHCII tetramer pools composed of HLA-DR molecules corresponding to those expressed in the test subject; Second, positive signals were de-convoluted by repeating and staining with single-peptide tetramers. Tetramers that gave strong positive signals (˜1% of total CD4+ T cells) in the single peptide-tetramer screen in more than one subject, were then re-tested for their ability to detect RV-specific CD4+ T cells in non-stimulated PBMCs (denoted as ex vivo analysis) in multiple subjects.
(§2) All experiments were performed in subjects expressing HLA-DR molecules corresponding to the selected tetramer. Precursor frequencies of circulating tetramer+ cells were then calculated by established methods. Tetramer+ cells were phenotyped for surface markers by staining PBMCs with PE-conjugated tetramers, labeling with anti-PE magnetic beads, enriching with an AutoMACS separator (Miltenyi Biotec, Auburn, Calif., USA), and then counterstaining for surface markers. A tetramer displaying an irrelevant peptide, GAD555-567, was used as a staining control. For simplicity, identified RV-A16 peptide epitopes were given a numerical designation.

In the next test the test system is CD4+ T cells. In words: Tetramer-guided epitope mapping (TGEM): pMHCII tetramer staining of PBMC cultures stimulated with RV peptides. Conditions: one value per subject.
Text: as §1, §2

Test [2] has as its system RV-specific CD4+ T cells. In words: Assay to assess T-cell cross-reactivity (14-day peptide stimulation of PBMCs, tetramer and cytokine staining). The settings on record: PBMCs from HLA-DR*0401+ subjects stimulated 14 days. The procedure:
RV-specific CD4+ T cells were expanded in vitro using established methods. Briefly, PBMCs from HLA-DRB 1*0401+ subjects were stimulated with RV-A39 VP2169-188, or else unstimulated, for 14 days. Supplemental IL-2 (10 U/ml) was given days 7-14. Cells were then stained with RV tetramers and re-stimulated with PMA and ionomycin in the presence of Brefeldin A before staining for intracellular cytokines. Cells were analyzed on a BD LSR Fortessa (UVA Flow Cytometry Core Facility) and data analysis was performed using FlowJo version 9.3.3 (Tree Star Inc., Ashland, Oreg.). Analysis and presentation of distributions was performed using SPICE version 5.3, downloaded from a National Institutes of Health website.

Setting [3] is: HLA allele 1*0101 tetramer, reliable ex vivo signal (tetramer+ cells ≥2 per million CD4+ T cells in ≥3 subjects).
Where [4] appears, read: HLA allele 1*0101 tetramer, tetramer-positive CD4+ T cells in peptide-stimulated PBMC cultures.
Setting [5] is: HLA allele DRB5 tetramer, peptide-stimulated PBMC cultures.
The mark [6] stands for this setting: HLA allele 1*0701 tetramer, reliable ex vivo signal.
The mark [7] stands for this setting: HLA allele 1*0701 tetramer, peptide-stimulated PBMC cultures.
Setting [8] is: HLA allele 1*1501 tetramer, peptide-stimulated PBMC cultures.
The mark [9] stands for this setting: HLA allele 1*1101 tetramer, peptide-stimulated PBMC cultures.
The mark [10] stands for this setting: HLA allele 1*0401 tetramer, peptide-stimulated PBMC cultures.
Setting [11] is: HLA allele DRB5 tetramer, reliable ex vivo signal.
Where [12] appears, read: HLA allele 1*0404 tetramer, peptide-stimulated PBMC cultures.

Regarding PHQFINLRSNNSATLIVPYV [VP2P24], in the test with RV-specific CD4+ T cells [1] (HLA allele 1*0101 tetramer), the “Ex Vivo Frequency (# per 10^6 CD4)” value was 17 # per 10^6 CD4 and 148 # per 10^6 CD4 and 26 # per 10^6 CD4. Further, the Validated result with RV-specific CD4+ T cells [1] (setting [3]) is “Y”. Also, the “In Vitro Frequency (% CD4)” value was 2.82 % CD4 and 3.17 % CD4 and 11.3 % CD4 with CD4+ T cells (setting [4]); 0 % CD4 (2×) and 0.67 % CD4 with CD4+ T cells (setting [5]).
For PRFSLPFLSIASAYYMFYDG [VP1P23], the “Ex Vivo Frequency (# per 10^6 CD4)” value in the test with RV-specific CD4+ T cells [1] (HLA allele 1*0101 tetramer) was 3 # per 10^6 CD4 and 8 # per 10^6 CD4 and 13 # per 10^6 CD4 and 2 # per 10^6 CD4; in the test with RV-specific CD4+ T cells [1] (HLA allele 1*0701 tetramer), 3 # per 10^6 CD4 and 8 # per 10^6 CD4 and 13 # per 10^6 CD4 and 2 # per 10^6 CD4; in the test with RV-specific CD4+ T cells [1] (HLA allele DRB5 tetramer), 11 # per 10^6 CD4. The Validated entry with RV-specific CD4+ T cells [1] (setting [3]) and in the test with RV-specific CD4+ T cells [1] (setting [6]) was “Y” each time. Further, the “In Vitro Frequency (% CD4)” value was 8.37 % CD4 and 0.35 % CD4 and 2.37 % CD4 with CD4+ T cells (setting [4]); 1.84 % CD4 and 0.74 % CD4 in the test with CD4+ T cells (setting [7]); 0.28 % CD4 and 0.78 % CD4 and 0 % CD4 in the test on CD4+ T cells (setting [8]); 2.03 % CD4 and 2.90 % CD4 with CD4+ T cells (setting [5]).
With PSVEACGYSDRIIQITRGDS [VP2P1], in the test with CD4+ T cells (setting [9]), the “In Vitro Frequency (% CD4)” value was 1.59 % CD4 and 1.16 % CD4 and 0.66 % CD4.
QIRRKFEMFTYARFDSEITM [VP1P14]: the “Ex Vivo Frequency (# per 10^6 CD4)” value with RV-specific CD4+ T cells [1] (HLA allele 1*0401 tetramer) is given as 4 # per 10^6 CD4. In the test with CD4+ T cells (setting [10]), the “In Vitro Frequency (% CD4)” value was 0.59 % CD4 and 0.96 % CD4.
For the sequence QSGTNASVFWQHGQPFPRFS [VP1P21], the “Ex Vivo Frequency (# per 10^6 CD4)” value with RV-specific CD4+ T cells [1] (HLA allele DRB5 tetramer) is 11 # per 10^6 CD4 and 28 # per 10^6 CD4 and 20 # per 10^6 CD4. The Validated entry with RV-specific CD4+ T cells [1] (setting [11]) is recorded as “Y”. Also, the “In Vitro Frequency (% CD4)” value in the test with CD4+ T cells (setting [5]) was 3.91 % CD4 and 0.95 % CD4.
With RGDSTITSQDVANAVVGYGV [VP2P3], the “Ex Vivo Frequency (# per 10^6 CD4)” value in the test on RV-specific CD4+ T cells [1] (HLA allele 1*0404 tetramer) is 36 # per 10^6 CD4 and 1 # per 10^6 CD4 and 38 # per 10^6 CD4 and 5 # per 10^6 CD4. Besides, the Validated entry in the test on RV-specific CD4+ T cells [1] (HLA allele 1*0404 tetramer, reliable ex vivo signal) is “Y”. Also, the “In Vitro Frequency (% CD4)” value with CD4+ T cells (setting [12]) is 6.86 % CD4 and 1.61 % CD4.
With RPPRAVQYSHTHTTNYKLSS [VP1P32], in the test with CD4+ T cells (setting [7]), the “In Vitro Frequency (% CD4)” value is 0.53 % CD4 and 0 % CD4.
For “SDDNWLNFDGTLLGNLLIFP [RV-A39 VP2169-188]”, the “cytokine profile of expanded RV-specific T cells” value in the test on RV-specific CD4+ T cells [2] (PMA/ionomycin re-stimulation) is “a major IFN-γ+IL-4neg population, and minor populations expressing IL-17A and IL-21”. Besides, the “expansion of tetramer-positive RV-specific CD4+ T cells after peptide stimulation” value in the test on RV-specific CD4+ T cells [2] (RV-A16 and RV-A39 VP2 tetramers) was “induced expansion of both RV-A16- and RV-A39-specific T-cells”.
In the case of SDRIIQITRGDSTITSQDVA [VP2P2], the “Ex Vivo Frequency (# per 10^6 CD4)” value in the test with RV-specific CD4+ T cells [1] (HLA allele 1*1101 tetramer) is 8 # per 10^6 CD4 and 11 # per 10^6 CD4 and 15 # per 10^6 CD4. In addition, in the test on RV-specific CD4+ T cells [1] (HLA allele 1*1101 tetramer, reliable ex vivo signal), the Validated entry is reported as “Y”. Further, the “In Vitro Frequency (% CD4)” value in the test on CD4+ T cells (setting [9]) was 2.18 % CD4 and 1.22 % CD4 and 2.28 % CD4.
For the sequence SIASAYYMFYDGYDGDTYKS [VP1P24], the “In Vitro Frequency (% CD4)” value in the test with CD4+ T cells (setting [8]) is 0.31 % CD4 and 0 % CD4 (2×).
Regarding SNNSATLIVPYVNAVPMDSM [VP2P25], the “Ex Vivo Frequency (# per 10^6 CD4)” value in the test on RV-specific CD4+ T cells [1] (HLA allele 1*1501 tetramer) was 31 # per 10^6 CD4 and 5 # per 10^6 CD4 and 13 # per 10^6 CD4 and 71 # per 10^6 CD4. Also, the Validated result in the test on RV-specific CD4+ T cells [1] (HLA allele 1*1501 tetramer, reliable ex vivo signal) was “Y”. In addition, the “In Vitro Frequency (% CD4)” value in the test on CD4+ T cells (setting [10]) is 0 % CD4 and 0.46 % CD4; in the test with CD4+ T cells (setting [8]), 2.26 % CD4 and 9.02 % CD4.
As for TSKGWWWKLPDALKDMGIFG [VP2P10], the “Ex Vivo Frequency (# per 10^6 CD4)” value with RV-specific CD4+ T cells [1] (HLA allele DRB5 tetramer) was 60 # per 10^6 CD4 and 24 # per 10^6 CD4 and 136 # per 10^6 CD4. For the same sequence, the Validated result in the test on RV-specific CD4+ T cells [1] (setting [11]) is on record as “Y”. The “In Vitro Frequency (% CD4)” value with CD4+ T cells (setting [5]) is 3.93 % CD4 and 4.49 % CD4 and 0.38 % CD4.
Regarding TSSNRFYTLDSKMWNSTSKG [VP2P8], the “Ex Vivo Frequency (# per 10^6 CD4)” value in the test with RV-specific CD4+ T cells [1] (HLA allele 1*0404 tetramer) is on record as 2 # per 10^6 CD4. The “In Vitro Frequency (% CD4)” value in the test with CD4+ T cells (setting [12]) is 0.77 % CD4 and 1.82 % CD4; in the test on CD4+ T cells (setting [9]), 0 % CD4 (2×) and 0.26 % CD4.
For the sequence TTRNDYAWQSGTNASVFWQH [VP1P20], in the test with CD4+ T cells (setting [4]), the “In Vitro Frequency (% CD4)” value was 18.7 % CD4 and 0 % CD4 (2×).
VPYVNAVPMDSMVRHNNWSL [VP2P26]: in the test with RV-specific CD4+ T cells [1] (HLA allele 1*0701 tetramer), the “Ex Vivo Frequency (# per 10^6 CD4)” value is 4 # per 10^6 CD4 and 16 # per 10^6 CD4 and 14 # per 10^6 CD4 and 5 # per 10^6 CD4. The Validated result in the test on RV-specific CD4+ T cells [1] (setting [6]) is “Y”. For the same sequence, the “In Vitro Frequency (% CD4)” value with CD4+ T cells (setting [7]) was 1.57 % CD4 and 0.84 % CD4.
For the sequence VVTNDMGTLCSRIVTSEQLH [VP1P27], the “In Vitro Frequency (% CD4)” value in the test with CD4+ T cells (setting [7]) was 0 % CD4 and 0.13 % CD4.

These data come from patent US10363299B2, “Compositions and methods for preventing and treating rhinovirus infections” (priority 2015, dated 2019).
